For assay [1], the target named is Human KDR (residues 790-1356) (Homo sapiens (Human), UniProt P35968). The assay can be described thus: Human KDR kinase assay, HTRF KinEase (Example B-2). The assay is classed as biochemical. Particulars: protocol of Example B-2 (other compounds). Put shortly:
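Human KDR residues 790-1356 (0.1 ng/well) in buffer with 5 mM MgCl2, 1 mM MnCl2, 1 mM DTT, biotinylated peptide substrate, ATP at Km (4.0 μM), 3% DMSO, 10 compound concentrations; 40 min, room temperature. EDTA stop, streptavidin-XL665/Eu-TK antibody HTRF read 665/620 nm; 4-parameter IC50.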

Assay [2] has as its target Human MER (residues 528-999) (Homo sapiens (Human), UniProt Q12866). The assay can be described thus: Human Mer kinase assay, HTRF KinEase (Example C-2). Type of assay: biochemical. The settings on record: protocol of Example C-2 (other compounds). The gist of the method:
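IC50 values from 10 concentrations via 4-parameter logistic fit of […], with DMSO as 100% and 1 μM reference compound as 0% activity. Reaction: MER kinase domain 528-999, 1 ng/well, 40 μM ATP (Km), biotin peptide, 5 mM MgCl2, 1 mM DTT, 3% DMSO, room temperature 60 min; HTRF streptavidin-XL665/Eu-antibody detection.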

For assay [3], the target named is KDR (phospho-KDR, VEGF165-stimulated HUVEC cells) (Homo sapiens (Human), UniProt P35968). Nature of the assay: KDR autophosphorylation ELISA in HUVEC cells (Example G). The settings on record: cellular activity; KDR autophosphorylation ELISA in HUVEC cells. The assay is classed as cell-based. The gist of the method:
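IC50 values derive from nonlinear curve fitting of phospho-KDR levels measured by ELISA and interpolated from a phosphoprotein standard. Beforehand, starved HUVECs received compound (0.3% DMSO vehicle) for one hour and were activated with VEGF165 at 100 ng/mL for 5 min.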

Assay [4] has as its target Mer (phospho-Mer, MERTK-transfected 293A cells) (Homo sapiens (Human), UniProt Q12866). Nature of the assay: Mer autophosphorylation ELISA in transient transfected 293A cells (Example H). The assay is classed as cell-based. The settings on record: cellular activity; Mer autophosphorylation ELISA in transient transfected 293A cells. Put shortly: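 Inhibition of cellular Mer autophosphorylation is determined in 293A cells transiently expressing human MERTK after 1 h compound exposure (8 concentrations, serum-free, 0.3% DMSO). Phospho-Mer in clarified lysates is measured by ELISA, with DMSO and reference-inhibitor wells defining the 100% and 0% activity limits.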
On the technique in general: An ELISA detects its analyte on a solid surface through an enzyme-linked reagent.

A value given as a limit tells only on which side of the number the result lay.

Chain of Human KDR (residues 790-1356) (P35968 790-1356): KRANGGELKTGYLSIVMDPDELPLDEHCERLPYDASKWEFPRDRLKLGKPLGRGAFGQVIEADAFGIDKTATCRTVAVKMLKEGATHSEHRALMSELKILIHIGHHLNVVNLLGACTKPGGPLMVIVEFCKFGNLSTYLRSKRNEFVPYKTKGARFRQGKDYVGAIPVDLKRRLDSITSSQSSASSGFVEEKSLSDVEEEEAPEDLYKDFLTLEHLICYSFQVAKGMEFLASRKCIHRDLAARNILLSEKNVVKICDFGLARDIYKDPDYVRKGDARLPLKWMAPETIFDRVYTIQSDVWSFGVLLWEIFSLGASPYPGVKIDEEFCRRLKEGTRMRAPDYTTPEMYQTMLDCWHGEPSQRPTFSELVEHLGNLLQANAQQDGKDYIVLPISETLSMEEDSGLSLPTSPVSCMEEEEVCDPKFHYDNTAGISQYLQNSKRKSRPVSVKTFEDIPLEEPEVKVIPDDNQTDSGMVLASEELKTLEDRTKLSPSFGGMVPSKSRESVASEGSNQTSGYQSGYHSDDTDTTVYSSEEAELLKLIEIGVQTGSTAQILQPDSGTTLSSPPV
Chain of KDR (phospho-KDR, VEGF165-stimulated HUVEC cells) (P35968 20-1356): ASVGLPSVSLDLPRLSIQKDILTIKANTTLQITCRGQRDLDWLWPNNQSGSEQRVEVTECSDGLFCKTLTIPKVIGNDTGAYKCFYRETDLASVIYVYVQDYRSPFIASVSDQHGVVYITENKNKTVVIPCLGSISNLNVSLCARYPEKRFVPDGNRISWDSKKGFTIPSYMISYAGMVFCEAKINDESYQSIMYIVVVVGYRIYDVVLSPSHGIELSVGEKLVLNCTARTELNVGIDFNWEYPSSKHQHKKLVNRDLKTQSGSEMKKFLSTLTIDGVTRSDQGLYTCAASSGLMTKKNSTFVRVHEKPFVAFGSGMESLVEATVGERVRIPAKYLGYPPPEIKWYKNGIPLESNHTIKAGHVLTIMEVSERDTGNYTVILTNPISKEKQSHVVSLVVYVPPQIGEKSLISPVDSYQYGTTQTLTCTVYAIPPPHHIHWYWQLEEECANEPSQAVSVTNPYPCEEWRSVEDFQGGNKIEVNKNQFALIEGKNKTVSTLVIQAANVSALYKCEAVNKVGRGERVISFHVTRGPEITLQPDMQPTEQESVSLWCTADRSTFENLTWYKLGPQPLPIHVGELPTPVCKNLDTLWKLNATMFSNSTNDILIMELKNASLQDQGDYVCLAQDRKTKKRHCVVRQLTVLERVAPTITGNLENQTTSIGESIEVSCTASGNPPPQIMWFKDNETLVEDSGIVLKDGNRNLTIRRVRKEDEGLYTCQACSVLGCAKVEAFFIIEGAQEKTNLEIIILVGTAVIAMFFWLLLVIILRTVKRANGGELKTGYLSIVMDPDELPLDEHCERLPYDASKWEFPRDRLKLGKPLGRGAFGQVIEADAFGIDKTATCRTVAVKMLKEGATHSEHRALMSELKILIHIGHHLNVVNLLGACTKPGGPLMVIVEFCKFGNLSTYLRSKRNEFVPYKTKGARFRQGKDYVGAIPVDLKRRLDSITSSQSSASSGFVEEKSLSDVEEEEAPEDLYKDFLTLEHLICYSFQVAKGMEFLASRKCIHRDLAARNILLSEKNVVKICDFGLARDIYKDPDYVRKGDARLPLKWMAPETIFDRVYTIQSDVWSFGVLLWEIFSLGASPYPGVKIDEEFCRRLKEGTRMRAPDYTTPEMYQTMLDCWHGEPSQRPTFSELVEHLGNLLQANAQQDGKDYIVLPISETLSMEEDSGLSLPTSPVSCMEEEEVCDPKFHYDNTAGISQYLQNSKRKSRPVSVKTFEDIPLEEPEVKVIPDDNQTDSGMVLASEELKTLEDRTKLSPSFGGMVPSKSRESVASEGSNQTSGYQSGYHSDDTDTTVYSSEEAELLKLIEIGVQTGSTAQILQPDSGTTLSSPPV
Chain of Mer (phospho-Mer, MERTK-transfected 293A cells) (Q12866 21-999): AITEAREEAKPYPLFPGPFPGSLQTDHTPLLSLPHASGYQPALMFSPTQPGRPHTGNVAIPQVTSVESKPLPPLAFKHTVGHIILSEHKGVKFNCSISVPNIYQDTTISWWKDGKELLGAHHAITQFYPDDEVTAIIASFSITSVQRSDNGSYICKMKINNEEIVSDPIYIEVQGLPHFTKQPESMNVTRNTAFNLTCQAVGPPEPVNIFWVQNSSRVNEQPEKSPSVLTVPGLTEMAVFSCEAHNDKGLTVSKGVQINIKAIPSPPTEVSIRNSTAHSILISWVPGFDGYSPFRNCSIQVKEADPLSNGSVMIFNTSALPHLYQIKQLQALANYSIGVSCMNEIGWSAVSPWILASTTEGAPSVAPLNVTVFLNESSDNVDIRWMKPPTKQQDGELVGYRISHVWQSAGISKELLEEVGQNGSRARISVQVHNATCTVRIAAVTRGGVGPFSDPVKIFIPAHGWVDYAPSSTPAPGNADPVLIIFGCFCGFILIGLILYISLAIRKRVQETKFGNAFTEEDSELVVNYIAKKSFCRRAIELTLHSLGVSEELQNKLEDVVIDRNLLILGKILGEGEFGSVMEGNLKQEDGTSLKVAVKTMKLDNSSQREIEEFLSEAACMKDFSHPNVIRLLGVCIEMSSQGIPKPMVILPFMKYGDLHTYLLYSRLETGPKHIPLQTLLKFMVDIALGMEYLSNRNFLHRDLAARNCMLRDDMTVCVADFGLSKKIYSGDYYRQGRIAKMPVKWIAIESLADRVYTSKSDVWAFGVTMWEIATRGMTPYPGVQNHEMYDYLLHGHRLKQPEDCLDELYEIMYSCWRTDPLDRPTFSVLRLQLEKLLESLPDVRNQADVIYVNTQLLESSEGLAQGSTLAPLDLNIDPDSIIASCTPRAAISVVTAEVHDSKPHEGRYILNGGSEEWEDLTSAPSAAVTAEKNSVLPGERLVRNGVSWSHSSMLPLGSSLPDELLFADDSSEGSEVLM
Chain of Human MER (residues 528-999) (Q12866 528-999): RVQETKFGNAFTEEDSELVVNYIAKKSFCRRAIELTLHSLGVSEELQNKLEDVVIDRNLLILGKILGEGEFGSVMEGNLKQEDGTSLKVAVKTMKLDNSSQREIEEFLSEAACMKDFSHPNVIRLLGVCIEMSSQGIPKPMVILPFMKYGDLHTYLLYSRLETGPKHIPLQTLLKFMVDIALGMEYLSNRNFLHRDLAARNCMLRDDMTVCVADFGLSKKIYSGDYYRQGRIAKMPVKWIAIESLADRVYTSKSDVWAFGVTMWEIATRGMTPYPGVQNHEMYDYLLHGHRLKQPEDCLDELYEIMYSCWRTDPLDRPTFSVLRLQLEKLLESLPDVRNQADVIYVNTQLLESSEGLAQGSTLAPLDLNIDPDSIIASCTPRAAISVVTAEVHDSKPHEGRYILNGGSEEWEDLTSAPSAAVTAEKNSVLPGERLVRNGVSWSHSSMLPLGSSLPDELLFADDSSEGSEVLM

Usually IC50 stands for the concentration needed to halve the response being measured. A higher IC50 goes with a need for much substance. As for `Cc1nc(C)c(-c2ccc(F)cc2)c(O)c1C(=O)Nc1ccc(Oc2ccnc3cc(OCc4ccccc4)cnc23)c(F)c1` [Compound 277, 5-(4-Fluorophenyl)-N-[3-fluoro-4-[(7-phenylmethoxy-1,5-naphthyridin-4-yl)oxy]phenyl]-4-hydroxy-2,6-dimethylpyridine-3-carboxamide], the IC50 was 100 to 300 nM in assay [1], less than 100 nM in assay [2], less than 100 nM in assay [3] and less than 100 nM in assay [4].
Regarding `Cc1nc(C)n(-c2ccc(F)cc2)c(=O)c1C(=O)Nc1ccc(Oc2ccnc3cc(OCc4ccccc4)cnc23)c(F)c1` [Compound 278, 1-(4-Fluorophenyl)-N-[3-fluoro-4-[(7-phenylmethoxy-1,5-naphthyridin-4-yl)oxy]phenyl]-2,4-dimethyl-6-oxopyrimidine-5-carboxamide], the IC50 in assay [1], in assay [2], in assay [3] and in assay [4] was less than 100 nM each time.
As to `COc1cc2nccc(Oc3ccc(NC(=O)c4c(C)cc(C)n(-c5ccc(F)cc5)c4=O)cc3F)c2nc1OC` [Compound 279, N-[4-[(6,7-Dimethoxy-1,5-naphthyridin-4-yl)oxy]-3-fluorophenyl]-1-(4-fluorophenyl)-4,6-dimethyl-2-oxopyridine-3-carboxamide], the IC50 in assay [1], in assay [2], in assay [3] and in assay [4] was less than 100 nM throughout.
Regarding `COc1cnc2c(Oc3ccc(NC(=O)c4c(C)cc(C)n(-c5ccc(F)cc5)c4=O)cc3F)ccnc2c1` [Compound 280, N-[3-Fluoro-4-[(7-methoxy-1,5-naphthyridin-4-yl)oxy]phenyl]-1-(4-fluorophenyl)-4,6-dimethyl-2-oxopyridine-3-carboxamide], the IC50 in assay [1], in assay [2], in assay [3] and in assay [4] was less than 100 nM each time.
Consider `COc1ccc2nccc(Oc3ccc(NC(=O)c4c(C)cc(C)n(-c5ccc(F)cc5)c4=O)cc3F)c2n1` [Compound 281, N-[3-Fluoro-4-[(6-methoxy-1,5-naphthyridin-4-yl)oxy]phenyl]-1-(4-fluorophenyl)-4,6-dimethyl-2-oxopyridine-3-carboxamide], for which the IC50 in assay [1], in assay [2], in assay [3] and in assay [4] was less than 100 nM throughout.
As for `COc1cc2nccc(Oc3ccc(NC(=O)c4cn(C)c(CO)c(-c5ccc(F)cc5C)c4=O)cc3F)c2nc1OC` [Compound 282, N-[4-[(6,7-Dimethoxy-1,5-naphthyridin-4-yl)oxy]-3-fluorophenyl]-5-(4-fluoro-2-methylphenyl)-6-(hydroxymethyl)-1-methyl-4-oxopyridine-3-carboxamide], the IC50 in assay [1] was more than 300 nM; in assay [2], less than 100 nM; in assay [3], less than 100 nM; in assay [4], less than 100 nM.
In the case of `CCn1cc(C(=O)Nc2ccc(Oc3ccnc4cc(OC)c(OC)nc34)c(F)c2)c(=O)c(-c2ccc(F)cc2C)c1CO` [Compound 283, N-[4-[(6,7-Dimethoxy-1,5-naphthyridin-4-yl)oxy]-3-fluorophenyl]-1-ethyl-5-(4-fluoro-2-methylphenyl)-6-(hydroxymethyl)-4-oxopyridine-3-carboxamide], the IC50 in assay [1] is more than 300 nM; in assay [2] it was less than 100 nM; in assay [3], 100 to 300 nM; in assay [4], less than 100 nM.
Take `CCn1cc(C(=O)Nc2ccc(Oc3ccnc4cc(OC)c(OC)nc34)cc2)c(=O)c(-c2ccc(F)cc2C)c1CO` [Compound 284, N-[4-[(6,7-Dimethoxy-1,5-naphthyridin-4-yl)oxy]phenyl]-1-ethyl-5-(4-fluoro-2-methylphenyl)-6-(hydroxymethyl)-4-oxopyridine-3-carboxamide]: the IC50 in assay [1] was more than 300 nM; in assay [2], less than 100 nM; in assay [3], more than 300 nM; in assay [4], less than 100 nM.
As for `CCn1cc(C(=O)Nc2ccc(Oc3ccnc4cc(OC)cnc34)c(F)c2)c(=O)c(-c2ccc(F)cc2C)c1CO` [Compound 285, 1-Ethyl-N-[3-fluoro-4-[(7-methoxy-1,5-naphthyridin-4-yl)oxy]phenyl]-5-(4-fluoro-2-methylphenyl)-6-(hydroxymethyl)-4-oxopyridine-3-carboxamide], the IC50 is more than 300 nM in assay [1], less than 100 nM in assay [2], more than 300 nM in assay [3] and less than 100 nM in assay [4].
As to `COc1cc2nccc(Oc3ccc(NC(=O)c4c(C)ccn(-c5ccc(F)cc5)c4=O)cc3F)c2nc1OC` [Compound 286, N-[4-[(6,7-Dimethoxy-1,5-naphthyridin-4-yl)oxy]-3-fluorophenyl]-1-(4-fluorophenyl)-4-methyl-2-oxopyridine-3-carboxamide], the IC50 in assay [1], in assay [2], in assay [3] and in assay [4] was less than 100 nM in each case.
As for `COc1ccc2nccc(Oc3ccc(NC(=O)c4c(C)ccn(-c5ccc(F)cc5)c4=O)cc3F)c2n1` [Compound 287, N-[3-Fluoro-4-[(6-methoxy-1,5-naphthyridin-4-yl)oxy]phenyl]-1-(4-fluorophenyl)-4-methyl-2-oxopyridine-3-carboxamide], the IC50 in assay [1], in assay [2], in assay [3] and in assay [4] was less than 100 nM each time.
For the molecule `COc1cc2nccc(Oc3ccc(NC(=O)c4c(C)cc(C)n(-c5ccc(F)cc5)c4=O)cc3)c2nc1OC` [Compound 288, N-[4-[(6,7-Dimethoxy-1,5-naphthyridin-4-yl)oxy]phenyl]-1-(4-fluorophenyl)-4,6-dimethyl-2-oxopyridine-3-carboxamide], the IC50 in assay [1], in assay [2], in assay [3] and in assay [4] was less than 100 nM throughout.
For `COc1cnc2c(Oc3ccc(NC(=O)c4c(C)cc(C)n(-c5ccc(F)cc5)c4=O)cc3)ccnc2c1` [Compound 289, 1-(4-Fluorophenyl)-N-[4-[(7-methoxy-1,5-naphthyridin-4-yl)oxy]phenyl]-4,6-dimethyl-2-oxopyridine-3-carboxamide], the half-maximal inhibitory concentration (IC50) in assay [1], in assay [2], in assay [3] and in assay [4] was less than 100 nM in each case.
Turning to `COc1ccc2nccc(Oc3ccc(NC(=O)c4c(C)cc(C)n(-c5ccc(F)cc5)c4=O)cc3)c2n1` [Compound 290, 1-(4-Fluorophenyl)-N-[4-[(6-methoxy-1,5-naphthyridin-4-yl)oxy]phenyl]-4,6-dimethyl-2-oxopyridine-3-carboxamide], the IC50 in assay [1], in assay [2], in assay [3] and in assay [4] was less than 100 nM each time.
In the case of `COc1cnc2c(Oc3ccc(NC(=O)c4cccn(-c5ccc(F)cc5)c4=O)cc3F)ccnc2c1` [Compound 291, N-[3-Fluoro-4-[(7-methoxy-1,5-naphthyridin-4-yl)oxy]phenyl]-1-(4-fluorophenyl)-2-oxopyridine-3-carboxamide], the IC50 in assay [1] is more than 300 nM; in assay [2], less than 100 nM; in assay [3], less than 100 nM; in assay [4], less than 100 nM.
Consider `COc1ccc2nccc(Oc3ccc(NC(=O)c4cccn(-c5ccc(F)cc5)c4=O)cc3F)c2n1` [Compound 292, N-[3-Fluoro-4-[(6-methoxy-1,5-naphthyridin-4-yl)oxy]phenyl]-1-(4-fluorophenyl)-2-oxopyridine-3-carboxamide], for which the IC50 in assay [1] is more than 300 nM; in assay [2], less than 100 nM; in assay [3] it was less than 100 nM; in assay [4], less than 100 nM.
In the case of `COc1cc2nccc(Oc3ccc(NC(=O)c4cccn(-c5ccc(F)cc5)c4=O)cc3F)c2nc1OC` [Compound 293, N-[4-[(6,7-Dimethoxy-1,5-naphthyridin-4-yl)oxy]-3-fluorophenyl]-1-(4-fluorophenyl)-2-oxopyridine-3-carboxamide], the IC50 in assay [1], in assay [2], in assay [3] and in assay [4] was less than 100 nM each time.
As to `COc1cnc2c(Oc3ccc(NC(=O)c4c(C)ccn(-c5ccc(F)cc5)c4=O)cc3F)ccnc2c1` [Compound 294, N-[3-Fluoro-4-[(7-methoxy-1,5-naphthyridin-4-yl)oxy]phenyl]-1-(4-fluorophenyl)-4-methyl-2-oxopyridine-3-carboxamide], the IC50 in assay [1], in assay [2], in assay [3] and in assay [4] was less than 100 nM throughout.

The record behind these values is patent US12371428B2 (Exelixis, Inc., priority 2019, dated 2025).
